Data set [1] concerns ouabain-induced arrhythmias. Particulars: in vivo; cited from earlier work.
Data set [2] concerns isoprenaline-induced tachycardia. Particulars: in vivo; cited from earlier work.
The subject of data set [3] is Aspergillus awamori transformed with the aequorin gene. The data set is described as follows: Example 6: aequorin luminometry of [Ca2+]c response (toxicity) in Aspergillus awamori. The settings on record: FIG. 1A. The class given is cell-based.
Data set [4] in a line: Stability in aqueous solution. Type of data set: physicochemical. Particulars: only freshly made stocks are effective; product a lot less toxic. The text has this: 4 pairs of optical enantiomers or salts thereof of the following chemicals were used in this study: • (R)-(+)-α-Methylbenzyl isocyanate and (S)-(−)-α-Methylbenzyl isocyanate. Only freshly made stocks of α-Methylbenzyl […] are effective.

Counter-ions that a name gives are not always drawn.

As for “(S)-(−)-propranolol hydrochloride [(S)-(−)-propranolol HCl]”, in data set [1], the “effectiveness in abolishing ouabain-induced arrhythmias” value (shortened to “effectiveness”) is listed as “little effect”.
On to `CC(C)NCC(O)COc1cccc2ccccc12` (single isomer, unassigned; (+)) [(+)-propranolol], for which, in data set [2], the “activity in blocking isoprenaline-induced tachycardia relative to racemic propranolol” value is “less than a hundredth the activity of racemic propranolol”. Further, the “effectiveness” value in data set [1] was “equally effective”.
With `CC(C)NCC(O)COc1cccc2ccccc12` (racemic) [propranolol hydrochloride], in data set [1], the “effectiveness” value was “equally effective”.
`COC(=O)C1=C(C)NC(C)=C([N+](=O)[O-])[C@@H]1c1ccccc1C(F)(F)F` [(R)-(+)-BAY K8644]: the “[Ca2+]c response to 10 μM (S)-(−)-BAY K8644” value in data set [3] (preincubation 5 min with 10 μM simple dilution, n=6) is recorded as “significant inhibition”. The “[Ca2+]c final resting level” value in data set [3] (preincubation with 10 μM, then 10 μM (S)-(−)-BAY K8644) is listed as “lower”.
Regarding `CC(N=C=O)c1ccccc1` (stereo not drawn) [α-Methylbenzyl isocyanate], the “stability in aqueous solution” value in data set [4] is listed as “will react with water”.

The values are drawn from US8071630B2 (priority 2002, dated 2011).
